Results taken from patent US20070254853A1, “Compositions and Methods for Promotion of Wound Healing” (BOARD OF REGENTS, THE UNIVERSITY OF TEXAS SYSTEM, priority 2006, published 2007).

Assays:
[1] = tested on: 8 mm full thickness dorsal skin punch wound; assay: Sirolimus dose response on healing of a full thickness skin punch wound; assay type: in vivo, Balb/c mice
Experimental: Sirolimus is an effective immunosuppressant that has been associated with delayed wound healing. On a full thickness skin murine model of immunosuppression and decreased wound healing, the Sirolimus dose that delayed wound healing was first determined.
Methods: For 2 weeks Balb/c mice were gavage-fed saline, 4 mg/kg, 8 mg/kg or 12 mg/kg Sirolimus (10 per group). After drug loading, an 8 mm in diameter full thickness dorsal skin punch wound was made in each mouse. Every second day digital pictures of the wound were taken and analyzed. After determining the effective Sirolimus dose that causes decreased wound healing and immunosuppression, 40 Balb/c mice were gavaged with 8 mg/kg of Sirolimus every other day. After establishing the punch wounds, the mono and dinucleotides were applied topically daily. The topical treatment was applied using the following formulations (10 mice per group): a mixture of mono and dinucleotides derived from RNA in 0.025%, 0.25% and 2.5% concentrations and one group with KY jelly as control. Every second day a digital picture was taken and wound size measured. P2Y2 receptor expression was qualitatively assessed using immunohistology and receptor specific antibodies. T-test was used to compare the groups.

[2] = tested on: 4 mm punch wound on the dorsal surface; assay: Topical applications for wound healing in mice (4 mm punch wound, three dietary groups); assay type: in vivo, Balb/c mice; conditions: 100 μM topical, in place of uracil; with or without CCM; four times over two weeks
Source text: Balb/c mice were divided into three dietary groups (F=normal mouse chow; NF=nucleotide free mouse chow; and NFR=nucleotide free mouse chow supplemented with yeast RNA). Each group was fed before initiation of wounds. After 4 weeks of feeding, a 4 mm punch wound was created on the dorsal surface of each mouse, using a 4 mm biopsy punch. The wounds were coated with four different topical agents: (1) saline; (2) uracil ([…]); (3) saline+CCM; and (4) Uracil+CCM (CCM=crosslinked collagen mesh). CCM (“Collagen Permeable Membrane”) from Accurate Chemical & Scientific Corporation, Catalog No. YIC 152299. Four mm size circles were soaked with appropriate nucleotide or saline solution (4 mm punch wounds) and used to dress the wounds.
Twelve groups were formed from these combinations (n=3). Mice were continued on their respective diets. Wounds were observed visually and photographed at four different times during the period of two weeks. These studies were repeated using a 100 μM concentration of inosine in place of uracil as the topical agent.

effect on wound healing ([1]; 4 mg/kg gavage for 2 weeks) | Structure (SMILES) | effect on wound healing ([1]; 8 mg/kg gavage for 2 weeks, day 4 and after) | effect on wound healing ([1]; 12 mg/kg gavage for 2 weeks, day 4 and after) | wound healing, wounds observed visually and photographed [2]
no effect on wound healing | CO[C@H]1C[C@@H]2CC[C@@H](C)[C@@](O)(O2)C(=O)C(=O)N2CCCC[C@H]2C(=O)O[C@H]([C@H](C)C[C@@H]2CC[C@@H](O)[C@H](OC)C2)CC(=O)[C@H](C)/C=C(\C)[C@@H](O)[C@@H](OC)C(=O)[C@H](C)C[C@H](C)/C=C/C=C/C=C/1C [Sirolimus] | delayed wound healing in a significant manner | delayed wound healing in a significant manner | –
– | OC[C@H]1O[C@@H](n2cnc3c(O)ncnc32)[C@H](O)[C@@H]1O [inosine] | – | – | no significant differences from that which was seen with the uracil
